In US9346761B2, “Arginine methyltransferase inhibitors and uses thereof” (Epizyme, Inc., priority 2013, dated 2016):

System: mono-methyl arginine in RKO cells
Assay: RKO methylation assay, In Cell Western for mono-methyl arginine and DNA content
Assay type: cell-based
Details: Homo sapiens, RKO, 72 h

`CN(CCN)Cc1c[nH]nc1-c1ccc(C(F)(F)F)cc1C(F)(F)F` [Compound 85] and `CNCCN(C)Cc1c[nH]nc1-c1ccc(F)cc1` [Compound 2, N^1-((3-(4-fluorophenyl)-1H-pyrazol-4-yl)methyl)-N^1,N^2-dimethylethane-1,2-diamine] cannot be ordered by EC30: greater than 12 µM for the first, greater than 12 µM for the second.

`COCCn1ncc(CN(C)CCN(C)C)c1-c1ccc(F)cc1` [Compound 64] and `CN(CCN)Cc1cnn(C)c1-c1ccc(F)cc1` [Compound 4] cannot be ordered by EC30: greater than 12 µM for the first, greater than 12 µM for the second.

For `CN(CCN)Cc1cn(C2COC2)nc1-c1ccc(F)cc1` [Compound 77], the EC30 was greater than 12 µM.

Same assay, conditions: Homo sapiens; In Cell Western, RKO cells, 72 hours, percent activation of mono-methyl arginine signal; read-out: EC30

`COCCn1cc(CN(C)CCN(C)C)c(-c2ccc(F)cc2)n1` [Compound 61] and `CN(CCN)Cc1cn(CCO)nc1-c1ccc(F)cc1` [Compound 66] cannot be ordered by EC30: greater than 12 µM for the first, greater than 12 µM for the second.

Going from `CC(C)Oc1ccc(-c2n[nH]cc2CN(C)CCN)cc1Cl` [Compound 168] to `CC(C)Oc1ccc(-c2n[nH]cc2CN(C)CCN)cc1` [Compound 67], the EC30 rises from less than 3 µM to greater than 12 µM.

`CNCCN(C)Cc1c[nH]nc1-c1ccc(OC)c(F)c1` [Compound 52] and `CNCCN(C)Cc1c[nH]nc1-c1ccc(F)c(F)c1` [Compound 51] cannot be ordered by EC30: greater than 12 µM for the first, greater than 12 µM for the second.

`CN(CCN)Cc1c[nH]nc1-c1ccc(F)cc1Cl` [Compound 89] and `CN(CCN)Cc1c[nH]nc1-c1ccc(Cl)cc1Cl` [Compound 86] fall in the same range of EC30: 3.01 to 12 µM for the first, 3.01 to 12 µM for the second.

`CNCCN(C)Cc1c[nH]nc1-c1ccccc1NS(C)(=O)=O` [Compound 41] and `CNCCN(C)Cc1c[nH]nc1-c1ccccc1O` [Compound 35] cannot be ordered by EC30: greater than 12 µM for the first, greater than 12 µM for the second.

`CN(CCN)Cc1cnn(CCO)c1-c1ccc(F)cc1` [Compound 65] and `CN(CCN)Cc1cnn(CC2COC2)c1-c1ccc(F)cc1` [Compound 80] cannot be ordered by EC30: greater than 12 µM for the first, greater than 12 µM for the second.

`CNCCN(C)Cc1cn(CCC(O)CO)nc1-c1ccc(F)cc1` (stereo not shown) [Compound 59] and `CN(CCN)Cc1cn(CC(O)CO)nc1-c1ccc(F)cc1` (stereo not shown) [Compound 76] cannot be ordered by EC30: greater than 12 µM for the first, greater than 12 µM for the second.

`CCN(CCN)Cc1c[nH]nc1-c1ccc(F)cc1` [Compound 62] and `CCCN(CCN)Cc1c[nH]nc1-c1ccc(F)cc1` [Compound 63] cannot be ordered by EC30: greater than 12 µM for the first, greater than 12 µM for the second.

`CNCCN(C)Cc1c[nH]nc1-c1cccc(NC(C)=O)c1` [Compound 42] and `CNCCN(C)Cc1c[nH]nc1-c1cccc(C(C)=O)c1` [Compound 44] cannot be ordered by EC30: greater than 12 µM for the first, greater than 12 µM for the second.

`CNCCN(C)Cc1c[nH]nc1-c1cccc2ccccc12` [Compound 57] and `CNCCN(C)Cc1c[nH]nc1-c1ccc2ccccc2c1` [Compound 58] cannot be ordered by EC30: greater than 12 µM for the first, greater than 12 µM for the second.

First: CN(CCN)Cc1c[nH]nc1-c1cccc(F)c1 [Compound 71]
Second: CN(CCN)Cc1c[nH]nc1-c1cccc(C#N)c1 [Compound 70]
The EC30 of the first is lower: 3.01 to 12 µM for the first, greater than 12 µM for the second.

`CNCCN(C)Cc1c[nH]nc1-c1ccccc1Oc1ccccc1` [Compound 36] and `CNCCN(C)Cc1c[nH]nc1-c1ccccc1-c1ccccc1` [Compound 46] cannot be ordered by EC30: greater than 12 µM for the first, greater than 12 µM for the second.

`CN(CCN)Cc1c[nH]nc1-c1ccccc1` [Compound 73] and `CN(CCN)Cc1c[nH]nc1-c1ccccc1F` [Compound 72] cannot be ordered by EC30: greater than 12 µM for the first, greater than 12 µM for the second.

First: CN(CCN)Cc1nn(C)cc1-c1ccc(C#N)cc1 [Compound 83]
Second: CN(CCN)Cc1c(-c2ccc(C#N)cc2)cnn1C [Compound 84]
The EC30 of the first is lower: 3.01 to 12 µM for the first, greater than 12 µM for the second.

First: NCCN(Cc1c[nH]nc1-c1ccc(F)cc1)C1CC1 [Compound 78]
Second: CC(C)N(CCN)Cc1c[nH]nc1-c1ccc(F)cc1 [Compound 75]
The EC30 of the first is lower: 3.01 to 12 µM for the first, greater than 12 µM for the second.

`CNCCN(C)Cc1c[nH]nc1-c1cc(Cl)ccc1OC` [Compound 53] and `CNCCN(C)Cc1c[nH]nc1-c1ccc(OC)cc1OC` [Compound 55] cannot be ordered by EC30: greater than 12 µM for the first, greater than 12 µM for the second.

`CNCCN(C)Cc1c[nH]nc1-c1ccc(F)cc1F` [Compound 49] and `CNCCN(C)Cc1c[nH]nc1-c1cc(F)ccc1F` [Compound 50] cannot be ordered by EC30: greater than 12 µM for the first, greater than 12 µM for the second.

First: CN(CCN)Cc1c[nH]nc1-c1ccc(C#N)cc1 [Compound 68]
Second: CN(CCN)Cc1c[nH]nc1-c1ccc(C(C)(C)C)cc1 [Compound 74]
The EC30 of the first is higher: greater than 12 µM for the first, 3.01 to 12 µM for the second.

Compared with `Cc1ccc(Cl)c(-c2n[nH]cc2CN(C)CCN)c1` [Compound 91], `Cc1ccc(-c2n[nH]cc2CN(C)CCN)c(Cl)c1` [Compound 90] is lower in EC30: greater than 12 µM for the first, 3.01 to 12 µM for the second.

`CNCCN(C)Cc1c[nH]nc1-c1cccc(OC)c1OC` [Compound 54] and `CNCCN(C)Cc1c[nH]nc1-c1c(OC)cccc1OC` [Compound 56] cannot be ordered by EC30: greater than 12 µM for the first, greater than 12 µM for the second.

`CCNCCN(C)Cc1c[nH]nc1-c1ccc(F)cc1` [Compound 60] and `CCN(CCNC)Cc1c[nH]nc1-c1ccc(F)cc1` [Compound 9] cannot be ordered by EC30: greater than 12 µM for the first, greater than 12 µM for the second.

`CNCCN(C)Cc1cnn(CC2CCOCC2)c1-c1ccc(F)cc1` [Compound 12] and `CNCCN(C)Cc1cn(CC2CCOCC2)nc1-c1ccc(F)cc1` [Compound 11] cannot be ordered by EC30: greater than 12 µM for the first, greater than 12 µM for the second.

`CNCCN(C)Cc1c[nH]nc1-c1ccc(-c2ccccc2)cc1` [Compound 47] and `CNCCN(C)Cc1c[nH]nc1-c1ccc(C(=O)c2ccccc2)cc1` [Compound 45] cannot be ordered by EC30: less than 3 µM for the first, less than 3 µM for the second.

`CNCCN(C)Cc1cnn(C)c1-c1ccc(F)cc1` [Compound 10] and `CN(CCN)Cc1cnn(C2COC2)c1-c1ccc(F)cc1` [Compound 81] cannot be ordered by EC30: greater than 12 µM for the first, greater than 12 µM for the second.

`CN(CCN)Cc1n[nH]cc1-c1ccc(F)cc1` [Compound 69] and `CN(CCN)Cc1cn[nH]c1-c1ccc(F)cc1` [Compound 1] fall in the same range of EC30: 3.01 to 12 µM for the first, 3.01 to 12 µM for the second.

`CN(CCN)Cc1cn(CC2COC2)nc1-c1ccc(F)cc1` [Compound 79] and `CN(CCN)Cc1cn(C)nc1-c1ccc(F)cc1` [Compound 3] cannot be ordered by EC30: greater than 12 µM for the first, greater than 12 µM for the second.

`CNCCN(C)Cc1c[nH]nc1-c1ccccc1F` [Compound 48] and `CNCCN(C)Cc1c[nH]nc1-c1cccc(N)c1` [Compound 32] cannot be ordered by EC30: greater than 12 µM for the first, greater than 12 µM for the second.

`COc1ccc(-c2n[nH]cc2CN(C)CCN)c(OC)c1` [Compound 87] and `Cc1ccc(-c2n[nH]cc2CN(C)CCN)c(C)c1` [Compound 88] cannot be ordered by EC30: greater than 12 µM for the first, greater than 12 µM for the second.

`CN(CCN)Cc1c[nH]nc1-c1ccc(OC(F)(F)F)cc1` [Compound 93] and `CN(CCN)Cc1c[nH]nc1-c1ccc(C(F)(F)F)cc1` [Compound 92] cannot be ordered by EC30: less than 3 µM for the first, less than 3 µM for the second.

`CNCCN(C)Cc1c[nH]nc1-c1ccc(CC#N)cc1` [Compound 34] and `CNCCN(C)Cc1c[nH]nc1-c1cccc(OC(F)(F)F)c1` [Compound 39] cannot be ordered by EC30: greater than 12 µM for the first, greater than 12 µM for the second.

Going from `CN(CCN)Cc1c[nH]nc1-c1ccc(OC(F)F)cc1` [Compound 94] to `CN(CCN)Cc1c[nH]nc1-c1ccc(N2CCNCC2)cc1` [Compound 82], the EC30 rises from less than 3 µM to greater than 12 µM.
